In US12084458B2, “Substituted pyridines, pyridazines, and pyrimidines as TYK2 inhibitors” (Sudo Biosciences Limited, priority 2021, dated 2024):

Assays:
Assay type in all cases: cell-based
[1] = system: HEK-Blue IFNγ reporter cells (IFNγ-stimulated STAT1 SEAP reporter); experiment: HEK-Blue IFNγ SEAP reporter assay for determining selectivity; parameters: IFN-γ (SEAP selectivity, IC50): scale not given here; details: 50 ng/mL human recombinant IFNγ; for IC50: Homo sapiens, HEK-Blue, read-out: IFN-γ (SEAP selectivity, IC50)
Procedure: (§1) Example B-3: HEK-Blue™ IL-2 and IFNγ Reporter Assays for Determining Selectivity
(§2) HEK-Blue™ IL-2 and IFNγ reporter cells with a stably-integrated cytokine receptor and STAT5 or STAT1 express STAT-inducible secreted embryonic alkaline phosphatase (SEAP) reporter gene upon cytokine stimulation. These cells were plated in DMEM (Gibco) containing 10% heat-inactivated FBS (Gibco) and 100 U/mL PenStrep (Gibco) at 37° C. under 5% CO2 conditions for 20-22 hours. The cells were then pretreated with serially diluted test compounds for 60 min prior to stimulation with either 4 ng/mL human recombinant IL-2 (Miltenyl Biotech) or 50 ng/mL human recombinant IFNγ (InvivoGen) for 24 hours. SEAP induction was measured using the QUANTI-Blue™ Solution (InvivoGen) according to the manufacturer's instructions.

[2] = system: HEK-Blue IFNα/β cells (IFNα-stimulated STAT1 SEAP reporter; TYK2 JH2); experiment: HEK-Blue IFNα/β SEAP reporter assay for profiling TYK2 pseudokinase (JH2) inhibition; details: Homo sapiens, HEK-Blue, 1 ng/mL human recombinant IFNα, read-out: IFNα (TYK2 inhibitory activity, IC50)
Procedure: (§3) Example B-1: HEK-Blue™ IL-23 and IFNα/β Reporter Assays for Profiling TYK2 Pseudokinase (JH2) Inhibition
(§4) HEK-Blue™ IL-23 and IFNα/β cells with a stably-integrated cytokine receptor and STAT3 or STAT1 express STAT-inducible secreted embryonic alkaline phosphatase (SEAP) reporter gene upon cytokine stimulation. These cells are plated in DMEM (Gibco) containing 10% heat-inactivated FBS (Gibco) and 100 U/mL PenStrep (Gibco) at 37° C. under 5% CO2 conditions for 20-22 hours. The cells are then pretreated with serially diluted test compounds for 60 min prior to stimulation with either 10 ng/mL human recombinant IL-23 (Miltenyl Biotech) or 1 ng/mL human recombinant IFNα (InvivoGen) for 22-24 hours for IL-23 or 16-18 h for IFNα. SEAP induction is measured using the QUANTI Blue™ Solution (InvivoGen) according to the manufacturer's instructions.

[3] = system: HEK-Blue IL-2 reporter cells (IL-2-stimulated STAT5 SEAP reporter); experiment: HEK-Blue IL-2 SEAP reporter assay for determining selectivity; details: 4 ng/mL human recombinant IL-2
Procedure: as §1, §2

[4] = system: HEK-Blue IL-23 cells (IL-23-stimulated STAT3 SEAP reporter; TYK2 JH2); experiment: HEK-Blue IL-23 SEAP reporter assay for profiling TYK2 pseudokinase (JH2) inhibition; details: 10 ng/mL human recombinant IL-23, SEAP reporter, read-out: IL23 (TYK2 inhibitory activity, IC50)
Procedure: as §3, §4

| Compound | IC50 [1] | IC50 [2] | IC50 [3] | IC50 [4] | IFN-γ (SEAP selectivity, IC50) [1] |
| --- | --- | --- | --- | --- | --- |
| [2H]C([2H])([2H])NC(=O)c1nnc(NC(=O)C2CC2)cc1Nc1cccc2c1N(C)[C@@H](C)c1nn(C)nc1-2 (single isomer, unassigned) [Compound 60] | > 1000 nM | < 30 nM | > 1000 nM | < 30 nM | – |
| [2H]C([2H])([2H])NC(=O)c1nnc(NC(=O)NC)cc1Nc1cccc2c1N(C)[C@@H](C)c1nn(C)nc1-2 (single isomer, unassigned) [Compound 62] | > 1000 nM | < 30 nM | > 1000 nM | < 30 nM | – |
| [2H]C([2H])([2H])NC(=O)c1nnc(NC(=O)C2CC2)cc1Nc1nccc2c1N(C)[C@@H](C)c1nn(C)nc1-2 (single isomer, unassigned) [Compound 94] | 300 to 1000 nM | < 30 nM | > 1000 nM | < 30 nM | – |
| [2H]C([2H])([2H])NC(=O)c1nnc(NC(=O)C2CC2)cc1Nc1nccc2c1N(C)[C@H](C)c1nn(C)nc1-2 (single isomer, unassigned) [Compound 95] | > 1000 nM | 30 to 300 nM | > 1000 nM | < 30 nM | – |
| [2H]C([2H])([2H])NC(=O)c1nnc(NC(=O)NC)cc1Nc1nccc2c1N(C)[C@@H](C)c1nn(C)nc1-2 (single isomer, unassigned) [Compound 100] | > 1000 nM | < 30 nM | > 1000 nM | < 30 nM | – |
| [2H]C([2H])([2H])NC(=O)c1cnc(NC(=O)C2CC2)cc1Nc1cc(F)cc2c1N(C)[C@@H](C)c1nc(C)nn1-2 (single isomer, unassigned) [Compound 110] | – | 30 to 300 nM | > 1000 nM | < 30 nM | C/D |
| [2H]C([2H])([2H])NC(=O)c1nnc(NC(=O)C2CC2)cc1Nc1cc(F)cc2c1N(C)[C@@H](C)c1nc(C)nn1-2 (single isomer, unassigned) [Compound 111] | > 1000 nM | 30 to 300 nM | > 1000 nM | < 30 nM | – |
| [2H]C([2H])([2H])NC(=O)c1nnc(Nc2cc(C)nc(C)n2)cc1Nc1cccc2c1N(C)Cc1nc(C)nn1-2 [Compound 15, 4-((2,5-dimethyl-4,5-dihydro-[1,2,4]triazolo[1,5-a]quinoxalin-6-yl)amino)-6-((2,6-dimethylpyrimidin-4-yl)amino)-N-(methyl-d3)pyridazine-3-carboxamide] | < 30 nM | < 30 nM | 300 to 1000 nM | < 30 nM | – |
| [2H]C([2H])([2H])NC(=O)c1nnc(NC(=O)NC)cc1Nc1cccc2c1N(C)Cc1nc(C)nn1-2 [Compound 19, 4-((2,5-dimethyl-4,5-dihydro-[1,2,4]triazolo[1,5-a]quinoxalin-6-yl)amino)-N-(methyl-d3)-6-(3-methylureido)pyridazine-3-carboxamide] | 300 to 1000 nM | 30 to 300 nM | > 1000 nM | < 30 nM | – |
| [2H]C([2H])([2H])NC(=O)c1cnc(Nc2cc(C)nc(C)n2)cc1Nc1cccc2c1N(C)Cc1nc(C)nn1-2 [Compound 26, 4-((2,5-dimethyl-4,5-dihydro-[1,2,4]triazolo[1,5-a]quinoxalin-6-yl)amino)-6-((2,6-dimethylpyrimidin-4-yl)amino)-N-(methyl-d3)nicotinamide] | 30 to 300 nM | < 30 nM | 300 to 1000 nM | < 30 nM | – |
| [2H]C([2H])([2H])NC(=O)c1nnc(NC(=O)C2CC2)cc1Nc1cccc2c1N(C)C([2H])([2H])c1nc(C)nn1-2 [Compound 35, 6-(cyclopropanecarboxamido)-4-((2,5-dimethyl-4,5-dihydro-[1,2,4]triazolo[1,5-a]quinoxalin-6-yl-4,4-d2)amino)-N-(methyl-d3)pyridazine-3-carboxamide] | 30 to 300 nM | < 30 nM | > 1000 nM | < 30 nM | – |
| [2H]C([2H])([2H])NC(=O)c1cnc(NC(=O)C2CC2)cc1Nc1cccc2c1N(C)C([2H])([2H])c1nc(C)nn1-2 [Compound 36, 6-(cyclopropanecarboxamido)-4-((2,5-dimethyl-4,5-dihydro-[1,2,4]triazolo[1,5-a]quinoxalin-6-yl-4,4-d2)amino)-N-(methyl-d3)nicotinamide] | 300 to 1000 nM | < 30 nM | > 1000 nM | < 30 nM | – |
| [2H]C([2H])([2H])NC(=O)c1nnc(NC(=O)C2CC2)cc1Nc1cccc2c1N(C)C1(CC1)c1nc(C)nn1-2 [Compound 39, 6-(cyclopropanecarboxamido)-4-((2′,5′-dimethyl-5′H-spiro[cyclopropane-1,4′-[1,2,4]triazolo[1,5-a]quinoxalin]-6′-yl)amino)-N-(methyl-d3)pyridazine-3-carboxamide] | 300 to 1000 nM | < 30 nM | > 1000 nM | < 30 nM | – |
| [2H]C([2H])([2H])NC(=O)c1cnc(NC(=O)C2CC2)cc1Nc1cccc2c1N(C)C1(CC1)c1nc(C)nn1-2 [Compound 40, 6-(cyclopropanecarboxamido)-4-((2′,5′-dimethyl-5′H-spiro[cyclopropane-1,4′-[1,2,4]triazolo[1,5-a]quinoxalin]-6′-yl)amino)-N-(methyl-d3)nicotinamide] | > 1000 nM | < 30 nM | > 1000 nM | < 30 nM | – |
| [2H]C([2H])([2H])NC(=O)c1nnc(NC(=O)C2CC2)cc1Nc1cccc2c1N(C)[C@H](C([2H])([2H])[2H])c1nc(C)nn1-2 [Compound 44, (R)-6-(cyclopropanecarboxamido)-4-((2,5-dimethyl-4-(methyl-d3)-4,5-dihydro-[1,2,4]triazolo[1,5-a]quinoxalin-6-yl)amino)-N-(methyl-d3)pyridazine-3-carboxamide] | > 1000 nM | < 30 nM | > 1000 nM | < 30 nM | – |
| [2H]C([2H])([2H])NC(=O)c1cnc(NC(=O)C2CC2)cc1Nc1cccc2c1N(C)Cc1nn(C([2H])([2H])[2H])nc1-2 [Compound 49, 6-(cyclopropanecarboxamido)-N-(methyl-d3)-4-((5-methyl-2-(methyl-d3)-4,5-dihydro-2H-[1,2,3]triazolo[4,5-c]quinolin-6-yl)amino)nicotinamide] | 30 to 300 nM | < 30 nM | > 1000 nM | < 30 nM | – |
| [2H]C([2H])([2H])NC(=O)c1cnc(NC(=O)NC)cc1Nc1cccc2c1N(C)Cc1nn(C)nc1-2 [Compound 50, 4-((2,5-dimethyl-4,5-dihydro-2H-[1,2,3]triazolo[4,5-c]quinolin-6-yl)amino)-N-(methyl-d3)-6-(3-methylureido)nicotinamide] | > 1000 nM | < 30 nM | > 1000 nM | < 30 nM | – |
| [2H]C([2H])([2H])NC(=O)c1nnc(NC(=O)C2CC2)cc1Nc1cccc2c1N(C)C([2H])([2H])c1nn(C)nc1-2 [Compound 53, 6-(cyclopropanecarboxamido)-4-((2,5-dimethyl-4,5-dihydro-2H-[1,2,3]triazolo[4,5-c]quinolin-6-yl-4,4-d2)amino)-N-(methyl-d3)pyridazine-3-carboxamide] | 30 to 300 nM | < 30 nM | 300 to 1000 nM | < 30 nM | – |
| [2H]C([2H])([2H])NC(=O)c1nnc(NC(=O)NC)cc1Nc1cccc2c1N(C)C([2H])([2H])c1nn(C)nc1-2 [Compound 54, 4-((2,5-dimethyl-4,5-dihydro-2H-[1,2,3]triazolo[4,5-c]quinolin-6-yl-4,4-d2)amino)-N-(methyl-d3)-6-(3-methylureido)pyridazine-3-carboxamide] | 300 to 1000 nM | < 30 nM | > 1000 nM | < 30 nM | – |
| [2H]C([2H])([2H])NC(=O)c1cnc(NC(=O)NC)cc1Nc1cccc2c1N(C)C([2H])([2H])c1nn(C)nc1-2 [Compound 63, 4-((2,5-dimethyl-4,5-dihydro-2H-[1,2,3]triazolo[4,5-c]quinolin-6-yl-4,4-d2)amino)-N-(methyl-d3)-6-(3-methylureido)nicotinamide] | > 1000 nM | < 30 nM | > 1000 nM | < 30 nM | – |
| [2H]C([2H])([2H])NC(=O)c1cnc(NC(=O)NC2CCC2)cc1Nc1cccc2c1N(C)Cc1nn(C)nc1-2 [Compound 64, 6-(3-cyclobutylureido)-4-((2,5-dimethyl-4,5-dihydro-2H-[1,2,3]triazolo[4,5-c]quinolin-6-yl)amino)-N-(methyl-d3)nicotinamide] | > 1000 nM | 30 to 300 nM | > 1000 nM | < 30 nM | – |
